Experimental data reported in US8148424B2, “Tocopherols, tocotrienols, other chroman and side chain derivatives and uses thereof” (Research Development Foundation, priority 1998, dated 2012).
Converted amounts (≈) assume the structure as drawn. Read-outs that look alike come from different tables or passages of the source.

Columns and labels:
MCF-10A = experiment: Bioassay for apoptosis (apoptotic EC50); format: cell-based; settings: Homo sapiens, unit inferred
Experimental: (§1) Cells were cultured at 1.5×10^5 cells/well in 12 well plates. Cells were allowed to adhere overnight, then incubated with novel test compounds at 0.01, 0.1, 1, 5, 10 & 20 μg/mL for 1, 2 and 3 days. After treatment, cells (floating+trypsin released adherent cells) were pelleted, washed and stained with 2 μg/ml DAPI (4′,6-diamidine-2′-phenylindole dihydrochloride) in 100% methanol for 15 minutes at 37° C. and/or 3′-OH ends resulting from DNA fragmentation were detected with the TUNEL (terminal deoxynucleotidyl transferase-mediated dUTP-X 3′ nick end-labeling) technique, and then viewed using a Zeiss ICM 405 microscope. Cells whose nucleus contained clearly condensed or fragmented chromatin or stained for fragmented DNA in the TUNEL assay were scored as apoptotic. Data are presented as percent cells undergoing apoptosis.

T47D = experiment: Bioassay for apoptosis (apoptotic EC50); format: cell-based; settings: Homo sapiens, unit inferred
Experimental: as §1

HMEC = experiment: Bioassay for apoptosis (apoptotic EC50); format: cell-based; settings: Homo sapiens, unit inferred
Experimental: as §1

[1] = system: human cancer cells from a wide variety of cell lineages; experiment: Apoptosis induction in a battery of tumor cells; format: cell-based; settings: breast, prostate, leukemia/lymphoid, cervical, ovarian, endometrial, colon, lung cell lines
Experimental: as §1

MDA-MB-231 = experiment: Bioassay for apoptosis (apoptotic EC50); format: cell-based, human; settings: Homo sapiens, MDA-MB-231, MDA-MB-231; unit inferred
Experimental: as §1

HL-60 = experiment: Bioassay for apoptosis (apoptotic EC50); format: cell-based, human; settings: for EC50: Homo sapiens, HL-60, HL-60, unit inferred
Experimental: as §1

MCF-7 = experiment: Bioassay for apoptosis (apoptotic EC50); format: cell-based, human; settings: for EC50: Homo sapiens, MCF7, MCF-7, unit inferred
Experimental: as §1

PC-3 = experiment: Bioassay for apoptosis (apoptotic EC50); format: cell-based, human; settings: Homo sapiens, PC-3, PC-3; unit inferred
Experimental: as §1

ME-180 = experiment: Bioassay for apoptosis (apoptotic EC50); format: cell-based, human; settings: for EC50: Homo sapiens, ME-180, ME-180, unit inferred
Experimental: as §1

C-170 = experiment: Bioassay for apoptosis (apoptotic EC50); format: cell-based, human; settings: for EC50: Homo sapiens, C170, C-170, unit inferred
Experimental: as §1

MDA-MB-435 = experiment: Bioassay for apoptosis (apoptotic EC50); format: cell-based, human
Experimental: as §1

RL-95-2 = experiment: Bioassay for apoptosis (apoptotic EC50); format: cell-based, human; settings: Homo sapiens, RL95-2, RL-95-2; unit inferred
Experimental: as §1

LnCaP = experiment: Bioassay for apoptosis (apoptotic EC50); format: cell-based, human; settings: for EC50: Homo sapiens, unit inferred
Experimental: as §1

Jurkat = experiment: Bioassay for apoptosis (apoptotic EC50); format: cell-based, human; settings: for EC50: Homo sapiens, unit inferred
Experimental: as §1

HT-29 = experiment: Bioassay for apoptosis (apoptotic EC50); format: cell-based, human; settings: Homo sapiens, unit inferred
Experimental: as §1

A-549 = experiment: Bioassay for apoptosis (apoptotic EC50); format: cell-based, human; settings: for EC50: Homo sapiens, A549, unit inferred
Experimental: as §1

DU-145 = experiment: Bioassay for apoptosis (apoptotic EC50); format: cell-based, human; settings: for EC50: Homo sapiens, unit inferred
Experimental: as §1

DLD-1 = experiment: Bioassay for apoptosis (apoptotic EC50); format: cell-based, human; settings: Homo sapiens, unit inferred
Experimental: as §1

[2] = system: breast tumor cell line MDA-MB-435; experiment: Bioassay for DNA synthesis arrest, naturally occurring vitamin E compounds; format: cell-based, human; settings: Table 1
Experimental: Table 1 provides tumor growth inhibitory properties of naturally occurring vitamin E compounds against the breast tumor cell line MDA-MB-435.
To assay DNA synthesis, all cells were used at 2.5×10^5/ml. Cells were treated with each of the compounds at concentrations of 0.01, 0.1, 1, 5, 10 and 20 μg/mL and 200 μl of each treatment group were plated in quadruplicate in a 96 well culture plate (Corning, Corning N.Y.). Experiments were done in duplicate, one plate used for viability testing and the other plate for examination of ^3H-TdR uptake to monitor DNA synthesis. Plates were cultured for 48 hours at 37° C., 5% CO2. Eight hours prior to the end of incubation, ^3H-TdR was added to one of the duplicate plates and incubation continued for 8 hours.
The cells were then harvested (trypsinization was required to harvest adherent cells), and isotope uptake was determined as counts per minute (cpm). For viability studies, at the end of the incubation, the cells were removed from the wells and viability checked by the Trypan Blue Exclusion method. Percent viability and percent DNA synthesis in comparison to untreated or vehicle treated cells of each treatment group were calculated.

[3] = Homo sapiens, MDA-MB-435, MDA-MB-435, unit inferred, read-out: apoptotic EC50
[4] = MDA-MB-435, Table 1, read-out: EC50 for Apoptosis

Row | EC50 (T47D) | EC50 (HL-60) | EC50 (MCF-7) | EC50 (PC-3) | EC50 (ME-180) | EC50 (C-170) | EC50 (MDA-MB-435; [3]) | EC50 (RL-95-2) | EC50 (LnCaP) | EC50 (HT-29) | EC50 (DU-145) | EC50 [2] | EC50 (MDA-MB-435; [4]) | Compound | EC50 (MCF-10A) | growth inhibitory (apoptotic inducing) properties specific for human cancer cells [1] | also measured
1 | – | – | > 20 µg/mL | > 20 µg/mL | – | – | > 20 µg/mL | – | > 20 µg/mL | – | > 20 µg/mL | – | – | CCCCCCCCCCCCC[C@]1(C)CCc2c(C)c(OCC(=O)O)c(C)c(C)c2O1 [Compound 24, 2,5,7,8-tetramethyl-(2R-(tridecyl)chroman-6-yloxy)acetic acid] | – | – | EC50 (DLD-1): > 20 µg/mL
2 | – | – | > 20 µg/mL | 20 to 30 µg/mL (≈ 39.8 to 59.7 µM) | > 20 µg/mL | > 20 µg/mL | > 20 µg/mL | > 20 µg/mL | > 20 µg/mL | > 20 µg/mL | 20 to 30 µg/mL (≈ 39.8 to 59.7 µM) | – | – | CCCCCCCCCCCCCCCCC[C@]1(C)CCc2c(C)c(OCC(=O)O)c(C)c(C)c2O1 [Compound 25, 2,5,7,8-tetramethyl-(2R-(heptadecyl)chroman-6-yloxy)acetic acid] | > 20 µg/mL | effective | EC50 (DLD-1): > 20 µg/mL
3 | – | – | – | – | – | – | – | – | – | – | – | 150 µM | 100 µM | Cc1cc(O)cc2c1O[C@](C)(CCC[C@H](C)CCC[C@H](C)CCCC(C)C)CC2 [δ-tocopherol, reference compound] | – | – | –

The remaining lines, values behind:

Row | Compound | EC50 (T47D) | EC50 (HL-60) | EC50 (MCF-7) | EC50 (PC-3) | EC50 (ME-180) | EC50 (C-170) | EC50 (MDA-MB-435; [3]) | EC50 (RL-95-2) | EC50 (LnCaP) | EC50 (HT-29) | EC50 (DU-145) | EC50 [2] | EC50 (MDA-MB-435; [4]) | EC50 (MCF-10A) | growth inhibitory (apoptotic inducing) properties specific for human cancer cells [1] | also measured
4 | Cc1cc(OCC(=O)O)c(C)c2c1O[C@](C)(CCC[C@H](C)CCC[C@H](C)CCCC(C)C)CC2 [Compound 7, 2,5,8-trimethyl-(2R-(4R,8R,12-trimethyltridecyl)chroman-6-yloxy) acetic acid] | > 20 µg/mL | 5 to 10 µg/mL (≈ 10.5 to 21.1 µM) | 10 to 20 µg/mL (≈ 21.1 to 42.1 µM) | 5 to 10 µg/mL (≈ 10.5 to 21.1 µM) | 5 to 10 µg/mL (≈ 10.5 to 21.1 µM) | 10 to 20 µg/mL (≈ 21.1 to 42.1 µM) | 5 to 10 µg/mL | 5 to 10 µg/mL (≈ 10.5 to 21.1 µM) | 2.5 to 5 µg/mL (≈ 5.27 to 10.5 µM) | – | – | – | – | > 20 µg/mL | effective | EC50 (HMEC): > 20 µg/mL; EC50 (MDA-MB-231): 5 to 10 µg/mL (≈ 10.5 to 21.1 µM)
5 | Cc1c(C)c2c(c(C)c1OCC(=O)N(CC(=O)O)CC(=O)O)CC[C@@](C)(CCC[C@H](C)CCC[C@H](C)CCCC(C)C)O2 [Compound 12] | – | 20 to 30 µg/mL (≈ 33.1 to 49.7 µM) | 5 to 10 µg/mL (≈ 8.28 to 16.6 µM) | 10 to 20 µg/mL (≈ 16.6 to 33.1 µM) | 5 to 10 µg/mL (≈ 8.28 to 16.6 µM) | 10 to 20 µg/mL (≈ 16.6 to 33.1 µM) | 5 to 10 µg/mL | 5 to 10 µg/mL (≈ 8.28 to 16.6 µM) | 20 to 30 µg/mL (≈ 33.1 to 49.7 µM) | – | – | – | – | > 20 µg/mL | effective | EC50 (HMEC): > 20 µg/mL; EC50 (MDA-MB-231): 5 to 10 µg/mL (≈ 8.28 to 16.6 µM)
6 | Cc1c(C)c2c(c(C)c1OCC(=O)O)CC[C@@](C)(CCCC(C)CCCC(C)CCCC(C)C)O2 (stereo partly drawn) [Compound 17] | 10 to 20 µg/mL (≈ 20.5 to 40.9 µM) | 10 to 20 µg/mL (≈ 20.5 to 40.9 µM) | 10 to 20 µg/mL (≈ 20.5 to 40.9 µM) | – | 20 to 30 µg/mL (≈ 40.9 to 61.4 µM) | 20 to 30 µg/mL (≈ 40.9 to 61.4 µM) | – | – | 10 to 20 µg/mL (≈ 20.5 to 40.9 µM) | > 20 µg/mL | – | – | – | > 20 µg/mL | effective | EC50 (Jurkat): 10 to 20 µg/mL (≈ 20.5 to 40.9 µM); EC50 (A-549): > 20 µg/mL
7 | Cc1c(C)c2c(c(C)c1OCCCN)CC[C@@](C)(CCC[C@H](C)CCCC(C)CCCC(C)C)O2.Cl (stereo partly drawn) [Compound 19] | – | – | – | – | – | – | – | – | – | – | – | – | – | – | effective | apoptotic EC50 (Jurkat; unit not given, in µg/mL): 10-20; apoptotic EC50 (HL-60; HL-60, unit not given, in µg/mL): 10-20; apoptotic EC50 (MCF-7; MCF-7, unit not given, in µg/mL): 10-20; apoptotic EC50 (A-549; unit not given, in µg/mL): 20-30; apoptotic EC50 (ME-180; ME-180, unit not given, in µg/mL): 1-5; apoptotic EC50 (DU-145; unit not given, in µg/mL): 5-10; apoptotic EC50 (C-170; C-170, unit not given, in µg/mL): 1-5; apoptotic EC50 (MDA-MB-435; MDA-MB-435, unit not given, in µg/mL): 10-20; apoptotic EC50 (LnCaP; unit not given, in µg/mL): 5-10
8 | Cc1c(C)c2c(c(C)c1OCC(=O)O)C=C[C@@](C)(CCC[C@H](C)CCC[C@H](C)CCCC(C)C)O2 [Compound 20, 2,5,7,8-tetramethyl-(2R-(4R,8R,12-trimethyltridecyl)chroman-3-ene-6-yloxy)acetic acid] | 5 to 10 µg/mL (≈ 10.3 to 20.5 µM) | 10 µg/mL (≈ 20.5 µM) | 5 to 10 µg/mL (≈ 10.3 to 20.5 µM) | 5 to 10 µg/mL (≈ 10.3 to 20.5 µM) | 1 to 5 µg/mL (≈ 2.05 to 10.3 µM) | – | 10 to 20 µg/mL | – | 5 to 10 µg/mL (≈ 10.3 to 20.5 µM) | – | 5 to 10 µg/mL (≈ 10.3 to 20.5 µM) | – | – | > 20 µg/mL | effective | EC50 (Jurkat): 10 to 20 µg/mL (≈ 20.5 to 41.1 µM); EC50 (A-549): 20 to 30 µg/mL (≈ 41.1 to 61.6 µM)
9 | CCCCCCC[C@]1(C)CCc2c(C)c(OCC(=O)O)c(C)c(C)c2O1 [Compound 23, 2,5,7,8-tetramethyl-(2R-(heptyl)chroman-6-yloxy)acetic acid] | – | – | > 20 µg/mL | > 20 µg/mL | – | – | > 20 µg/mL | – | – | > 20 µg/mL | > 20 µg/mL | – | – | > 20 µg/mL | – | –
10 | CC(C)=CCC/C(C)=C\C=C/[C@]1(C)CCc2c(C)c(OCC(=O)O)c(C)c(C)c2O1 [Compound 26] | > 20 µg/mL | > 20 µg/mL | > 20 µg/mL | > 20 µg/mL | – | 20 to 30 µg/mL (≈ 48.5 to 72.7 µM) | 20 to 40 µg/mL | 20 to 30 µg/mL (≈ 48.5 to 72.7 µM) | 10 to 20 µg/mL (≈ 24.2 to 48.5 µM) | > 20 µg/mL | > 20 µg/mL | – | – | > 20 µg/mL | effective | EC50 (Jurkat): 20 to 30 µg/mL (≈ 48.5 to 72.7 µM); EC50 (A-549): > 20 µg/mL; EC50 (DLD-1): 20 to 40 µg/mL (≈ 48.5 to 97 µM)
11 | Cc1c(O)cc2c(c1C)O[C@](C)(CCC[C@H](C)CCC[C@H](C)CCCC(C)C)CC2 [γ-tocopherol, reference compound] | – | – | – | – | – | – | – | – | – | – | – | > 400 µM | 300 µM | – | – | –
12 | CC(C)=CCC/C(C)=C/CC/C(C)=C/CC[C@]1(C)CCc2cc(O)c(C)c(C)c2O1 [γ-tocotrienol, reference compound] | – | – | – | – | – | – | – | – | – | – | – | 10 µM | 10 µM | – | – | –
13 | CC(C)=CCC/C(C)=C/CC/C(C)=C/CC[C@]1(C)CCc2cc(O)cc(C)c2O1 [δ-tocotrienol, reference compound] | – | – | – | – | – | – | – | – | – | – | – | 5 µM | 5 µM | – | – | –
